{"source": "BindingDB's records for doi:10.1016/j.bioorg.2017.03.006", "about": "(CSIR-Indian Institute of Chemical Biology, 2017)", "molecular_target": "Alpha-glucosidase MAL32 (Saccharomyces cerevisiae (strain ATCC 204508 / S288c), UniProt P38158)", "sequence (P38158 whole entry)": "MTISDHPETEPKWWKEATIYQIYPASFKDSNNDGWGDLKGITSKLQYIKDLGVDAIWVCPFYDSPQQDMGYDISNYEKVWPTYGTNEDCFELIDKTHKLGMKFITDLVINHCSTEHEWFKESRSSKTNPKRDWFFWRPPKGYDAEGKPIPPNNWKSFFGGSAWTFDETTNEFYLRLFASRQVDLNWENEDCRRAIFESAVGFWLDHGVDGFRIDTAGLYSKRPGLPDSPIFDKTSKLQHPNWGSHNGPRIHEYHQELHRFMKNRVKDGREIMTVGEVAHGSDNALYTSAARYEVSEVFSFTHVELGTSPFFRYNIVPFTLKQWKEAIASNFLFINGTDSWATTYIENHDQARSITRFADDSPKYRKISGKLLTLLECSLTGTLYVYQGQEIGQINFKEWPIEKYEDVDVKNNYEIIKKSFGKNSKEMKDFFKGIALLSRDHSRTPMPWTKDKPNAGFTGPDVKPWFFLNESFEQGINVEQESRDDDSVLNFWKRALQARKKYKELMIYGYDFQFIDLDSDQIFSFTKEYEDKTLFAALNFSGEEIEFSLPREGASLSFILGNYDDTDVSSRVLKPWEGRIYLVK", "assay": "α-Glucosidase Inhibition Assay", "conditions": "pH 6.8; 37 °C", "description": "Briefly, the sample solution (25 μL, 1.0 mM solution in DMSO) was mixed with enzyme solution (25 μL, 0.5 U/mL prepared in 0.1 M phosphate buffer, pH 6.8). […] After the incubation, the substrate p-nitrophenyl α-D-glucopyranoside (25 μL, 0.5 mM, 0.1 Mphosphate buffer, pH 6.8) was added to the mixture and allowed to incubate at 37 ± 1 °C for 30 min. The reaction was then terminated by the addition of aqueous solution of sodium carbonate (100 μL, 0.2 M). […] The uninhibited enzyme solution was taken as blank and an appropriate DMSO control was used. […] The concentration of DMSO in the final solution was maintained below 5.0% so that the enzyme activity was not destroyed."}
{"smiles": "O=C(CCc1cn(-c2ccc(O)cc2)nn1)N[C@@H]1OC(CO)[C@@H](O)C(O)C1O", "note": "(stereo partly drawn) [3-[1-(4-Hydroxyphenyl)-1H-[1,2,3]triazol-4-yl]-N-(2,3,4,6-tetra-O-acetyl-β-D-glucopyranosyl)propanamide (4f)]", "values": [{"measurement": "IC50", "value": 148, "unit": "µM"}]}
